Assay results taken from patent publication US9920063B2, “Melampomagnolide B derivatives” (Board of Trustees of the University of Arkansas, priority 2013, dated 2018).
Read-outs that look alike come from different tables or passages of the source.

Experiments:
AML 052308 cells = test: Antileukemic activity against AML 052308 cells in culture
Protocol: For each compound, in vitro cell culture studies were performed in which a range of concentrations (0.25-20 μM) was tested for cytotoxicity against leukemia cell lines, primary leukemia specimens and normal bone marrow controls.

SW-620 = test: NCI human tumor cell line panel, Colon Cancer

C=C1C(=O)O[C@H]2[C@H]1CC/C(COC(=O)c1cc3ccccc3[nH]1)=C\CC[C@@]1(C)O[C@@H]21 [BS-1-28]
CC50 (NCI-H460): 7750 nM
Percent Growth (NCI-H460; NCI-H460, Log10 Concentration −4.0): −75%
Percent Growth (NCI-H460; NCI-H460, Log10 Concentration −5.0): −67%
Percent Growth (NCI-H460; NCI-H460, Log10 Concentration −6.0): 86%
Percent Growth (NCI-H460; NCI-H460, Log10 Concentration −7.0): 101%
Percent Growth (NCI-H460; NCI-H460, Log10 Concentration −8.0): 166%
GI50 (NCI-H460; NCI-H460, NCI five dose): 1730 nM
TGI (NCI-H460; NCI-H460, NCI five dose): 3.66E−6
Fold more potent than parthenolide (AML 052308 cells; AML 052308 cells): around 3 fold
EC50 (AML 052308 cells; AML 052308 cells in culture): 2200 nM
CC50 (A549/ATCC): 59300 nM
Percent Growth (A549/ATCC; A549/ATCC, Log10 Concentration −4.0): −53%
Percent Growth (A549/ATCC; A549/ATCC, Log10 Concentration −5.0): −41%
Percent Growth (A549/ATCC; A549/ATCC, Log10 Concentration −6.0): 92%
Percent Growth (A549/ATCC; A549/ATCC, Log10 Concentration −7.0): 96%
Percent Growth (A549/ATCC; A549/ATCC, Log10 Concentration −8.0): 91%
GI50 (A549/ATCC; A549/ATCC, NCI five dose): 2060 nM
TGI (A549/ATCC; A549/ATCC, NCI five dose): 4.90E−6
Percent Growth (SW-620; Log10 Concentration −4.0): −75%
Percent Growth (SW-620; Log10 Concentration −5.0): −67%
Percent Growth (SW-620; Log10 Concentration −6.0): −19%
Percent Growth (SW-620; Log10 Concentration −7.0): 98%
Percent Growth (SW-620; Log10 Concentration −8.0): 93%
GI50 (SW-620; NCI five dose): 256 nM
TGI (SW-620; NCI five dose): 8.88E−7
CC50 (SW-620; read-out: LC50, NCI five dose): 4470 nM
CC50 (RPMI-8226): > 100000 nM
Percent Growth (RPMI-8226; RPMI-8226, Log10 Concentration −4.0): −34%
Percent Growth (RPMI-8226; RPMI-8226, Log10 Concentration −5.0): −26%
Percent Growth (RPMI-8226; RPMI-8226, Log10 Concentration −6.0): −8%
Percent Growth (RPMI-8226; RPMI-8226, Log10 Concentration −7.0): 92%
Percent Growth (RPMI-8226; RPMI-8226, Log10 Concentration −8.0): 97%
GI50 (RPMI-8226; RPMI-8226, NCI five dose): 264 nM
TGI (RPMI-8226; RPMI-8226, NCI five dose): 8.27E−7
CC50 (UACC-257): 6980 nM
Percent Growth (UACC-257; UACC-257, Log10 Concentration −4.0): −78%
Percent Growth (UACC-257; UACC-257, Log10 Concentration −5.0): −75%
Percent Growth (UACC-257; UACC-257, Log10 Concentration −6.0): 53%
Percent Growth (UACC-257; UACC-257, Log10 Concentration −7.0): 93%
Percent Growth (UACC-257; UACC-257, Log10 Concentration −8.0): 98%
GI50 (UACC-257; UACC-257, NCI five dose): 1610 nM
TGI (UACC-257; UACC-257, NCI five dose): 3.36E−6
CC50 (NCI/ADR-RES): > 100000 nM
Percent Growth (NCI/ADR-RES; NCl/ADR-RES, Log10 Concentration −4.0): −43%
Percent Growth (NCI/ADR-RES; NCl/ADR-RES, Log10 Concentration −5.0): −2%
Percent Growth (NCI/ADR-RES; NCl/ADR-RES, Log10 Concentration −6.0): 77%
Percent Growth (NCI/ADR-RES; NCl/ADR-RES, Log10 Concentration −7.0): 100%
Percent Growth (NCI/ADR-RES; NCl/ADR-RES, Log10 Concentration −8.0): 99%
GI50 (NCI/ADR-RES; NCl/ADR-RES, NCI five dose): 2200 nM
TGI (NCI/ADR-RES; NCl/ADR-RES, NCI five dose): 9.42E−6
CC50 (RXF 393): 6230 nM
Percent Growth (RXF 393; RXF 393, Log10 Concentration −4.0): −65%
Percent Growth (RXF 393; RXF 393, Log10 Concentration −5.0): −77%
Percent Growth (RXF 393; RXF 393, Log10 Concentration −6.0): 54%
Percent Growth (RXF 393; RXF 393, Log10 Concentration −7.0): 85%
Percent Growth (RXF 393; RXF 393, Log10 Concentration −8.0): 73%
GI50 (RXF 393; RXF 393, NCI five dose): 1070 nM
TGI (RXF 393; RXF 393, NCI five dose): 2.58E−6
CC50 (NCI-H522): 6720 nM
Percent Growth (NCI-H522; NCI-H522, Log10 Concentration −4.0): −72%
Percent Growth (NCI-H522; NCI-H522, Log10 Concentration −5.0): −69%
Percent Growth (NCI-H522; NCI-H522, Log10 Concentration −6.0): 43%
Percent Growth (NCI-H522; NCI-H522, Log10 Concentration −7.0): 104%
Percent Growth (NCI-H522; NCI-H522, Log10 Concentration −8.0): 83%
GI50 (NCI-H522; NCI-H522, NCI five dose): 757 nM
TGI (NCI-H522; NCI-H522, NCI five dose): 2.40E−6
CC50 (SN12C): 90500 nM
Percent Growth (SN12C; SN12C, Log10 Concentration −4.0): −59%
Percent Growth (SN12C; SN12C, Log10 Concentration −5.0): −35%
Percent Growth (SN12C; SN12C, Log10 Concentration −6.0): 77%
Percent Growth (SN12C; SN12C, Log10 Concentration −7.0): 71%
Percent Growth (SN12C; SN12C, Log10 Concentration −8.0): 60%
GI50 (SN12C; SN12C, NCI five dose): 1140 nM
TGI (SN12C; SN12C, NCI five dose): 4.83E−6
CC50 (SNB-19): 7330 nM
Percent Growth (SNB-19; SNB-19, Log10 Concentration −4.0): −64%
Percent Growth (SNB-19; SNB-19, Log10 Concentration −5.0): −70%
Percent Growth (SNB-19; SNB-19, Log10 Concentration −6.0): 81%
Percent Growth (SNB-19; SNB-19, Log10 Concentration −7.0): 92%
Percent Growth (SNB-19; SNB-19, Log10 Concentration −8.0): 57%
GI50 (SNB-19; SNB-19, NCI five dose): 1600 nM
TGI (SNB-19; SNB-19, NCI five dose): 3.93E−6
CC50 (SNB-75): 4720 nM
Percent Growth (SNB-75; SNB-75, Log10 Concentration −4.0): −58%
Percent Growth (SNB-75; SNB-75, Log10 Concentration −5.0): −98%
Percent Growth (SNB-75; SNB-75, Log10 Concentration −6.0): 50%
Percent Growth (SNB-75; SNB-75, Log10 Concentration −7.0): 77%
Percent Growth (SNB-75; SNB-75, Log10 Concentration −8.0): 72%
GI50 (SNB-75; SNB-75, NCI five dose): 1010 nM
TGI (SNB-75; SNB-75, NCI five dose): 2.19E−6
CC50 (SK-MEL-2): 7830 nM
Percent Growth (SK-MEL-2; SK-MEL-2, Log10 Concentration −4.0): −88%
Percent Growth (SK-MEL-2; SK-MEL-2, Log10 Concentration −5.0): −67%
Percent Growth (SK-MEL-2; SK-MEL-2, Log10 Concentration −6.0): 96%
Percent Growth (SK-MEL-2; SK-MEL-2, Log10 Concentration −7.0): 113%
Percent Growth (SK-MEL-2; SK-MEL-2, Log10 Concentration −8.0): 103%
GI50 (SK-MEL-2; SK-MEL-2, NCI five dose): 1920 nM
TGI (SK-MEL-2; SK-MEL-2, NCI five dose): 3.88E−6
CC50 (M14): 5760 nM
Percent Growth (M14; M14, Log10 Concentration −4.0): −92%
Percent Growth (M14; M14, Log10 Concentration −5.0): −80%
Percent Growth (M14; M14, Log10 Concentration −6.0): 46%
Percent Growth (M14; M14, Log10 Concentration −7.0): 87%
Percent Growth (M14; M14, Log10 Concentration −8.0): 88%
GI50 (M14; M14, NCI five dose): 814 nM
TGI (M14; M14, NCI five dose): 2.32E−6
CC50 (MOLT-4): > 100000 nM
Percent Growth (MOLT-4; MOLT-4, Log10 Concentration −4.0): −32%
Percent Growth (MOLT-4; MOLT-4, Log10 Concentration −5.0): −3%
Percent Growth (MOLT-4; MOLT-4, Log10 Concentration −6.0): 62%
Percent Growth (MOLT-4; MOLT-4, Log10 Concentration −7.0): 103%
Percent Growth (MOLT-4; MOLT-4, Log10 Concentration −8.0): 105%
GI50 (MOLT-4; MOLT-4, NCI five dose): 1510 nM
TGI (MOLT-4; MOLT-4, NCI five dose): 8.89E−6
CC50 (CCRF-CEM): > 100000 nM
Percent Growth (CCRF-CEM; CCRF-CEM, Log10 Concentration −4.0): −37%
Percent Growth (CCRF-CEM; CCRF-CEM, Log10 Concentration −5.0): −15%
Percent Growth (CCRF-CEM; CCRF-CEM, Log10 Concentration −6.0): 3%
Percent Growth (CCRF-CEM; CCRF-CEM, Log10 Concentration −7.0): 90%
Percent Growth (CCRF-CEM; CCRF-CEM, Log10 Concentration −8.0): 99%
GI50 (CCRF-CEM; CCRF-CEM, NCI five dose): 286 nM
TGI (CCRF-CEM; CCRF-CEM, NCI five dose): 1.45E−6
GI50 (CCRF-CEM; leukemia cell line CCRF-CEM): 288 nM
CC50 (SR): > 100000 nM
Percent Growth (SR; SR, Log10 Concentration −4.0): −39%
Percent Growth (SR; SR, Log10 Concentration −5.0): −28%
Percent Growth (SR; SR, Log10 Concentration −6.0): 53%
Percent Growth (SR; SR, Log10 Concentration −7.0): 98%
Percent Growth (SR; SR, Log10 Concentration −8.0): 162%
GI50 (SR; SR, NCI five dose): 1080 nM
TGI (SR; SR, NCI five dose): 4.51E−6
CC50 (UO-31): 5000 nM
Percent Growth (UO-31; UO-31, Log10 Concentration −4.0): −89%
Percent Growth (UO-31; UO-31, Log10 Concentration −5.0): −92%
Percent Growth (UO-31; UO-31, Log10 Concentration −6.0): 49%
Percent Growth (UO-31; UO-31, Log10 Concentration −7.0): 74%
Percent Growth (UO-31; UO-31, Log10 Concentration −8.0): 72%
GI50 (UO-31; UO-31, NCI five dose): 887 nM
TGI (UO-31; UO-31, NCI five dose): 2.21E−6
